Results: patent US8178506B2, “Oligomeric compounds and compositions for use in modulation of small non-coding RNAs” (Regulus Therapeutics Inc., priority 2003, dated 2012)
In the oligonucleotide strings, read from the 5' end, every base follows the letter of its sugar. An asterisk marks phosphorothioate; unmarked linkages are phosphodiester. Other units and linkages are bracketed, terminal groups are in braces. A string of capitals states the bases alone. e = 2'-O-(2-methoxyethyl) (MOE); [5mC] = 5-methylcytosine; d = 2'-deoxy (DNA)

Tests used:
[1] = tested on: adipocytes; assay: Triglyceride accumulation assay in adipocytes; assay type: cell-based, human
[2] = tested on: T47D cells; assay: Caspase-3 activity assay (apoptosis) in T47D cells; conditions: T47D cells; for Fold Increase over UTC (caspase-3 activity, apoptosis): 200 nM oligomeric compound
[3] = tested on: HeLa cells; assay: Cell cycle assay in HeLa cells; assay type: cell-based, human; conditions: HeLa cells, 150 nM oligomeric compound; for % cells aneuploid / % cells in cell cycle phase G1 / % cells in cell cycle phase G2/M / % cells in cell cycle phase S / % cells in cell cycle phase subG1: 24 hours, relative to untreated control (UTC = 100); for % cells in cell cycle phase: G1 / % cells in cell cycle phase: G2/M / % cells in cell cycle phase: S / % cells in cell cycle phase: aneuploid / % cells in cell cycle phase: subG1: 48 hours after treatment, relative to untreated control (UTC=100)
[4] = tested on: BJ, B16-F10, T47D, T47Dp53 and HeLa cells; assay: Cell cycle assay (propidium iodide flow cytometry), cell line panel; assay type: cell-based; conditions: 150 nM oligomeric compound, 4.5 μg/ml LIPOFECTIN, after 72 hours, propidium iodide flow cytometry
[5] = tested on: PPARγ; assay: PPARγ mRNA expression in adipocytes (real-time PCR); assay type: cell-based, human; conditions: differentiating adipocytes transfected with oligomeric compound
[6] = tested on: aP2; assay: aP2 mRNA expression in adipocytes (real-time PCR); assay type: cell-based, human; conditions: differentiating adipocytes transfected with oligomeric compound
[7] = tested on: HSL; assay: HSL mRNA expression in adipocytes (real-time PCR); assay type: cell-based, human; conditions: differentiating adipocytes transfected with oligomeric compound
[8] = tested on: Glut4; assay: Glut4 mRNA expression in adipocytes (real-time PCR); assay type: cell-based, human; conditions: differentiating adipocytes transfected with oligomeric compound
[9] = 48 hours, experiment of Table 12

Substance | % cells aneuploid [3] [%] | % cells in cell cycle phase G1 [3] [%] | % cells in cell cycle phase G2/M [3] [%] | % cells in cell cycle phase S [3] [%] | % cells in cell cycle phase subG1 [3] [%] | % cells in cell cycle phase: G1 [3] [%] | % cells in cell cycle phase: G2/M [3] [%] | % cells in cell cycle phase: S [3] [%] | % cells in cell cycle phase: aneuploid [3] [%] | % cells in cell cycle phase: subG1 [3] [%] | Fold Increase over UTC (caspase-3 activity, apoptosis) [2, 9] [fold] | G1 (percentage of cells in phase of the cell cycle) [4] [%] | G2/M (percentage of cells in phase of the cell cycle) [4] [%] | S (percentage of cells in phase of the cell cycle) [4] [%] | SubG1 (percentage of cells in phase of the cell cycle) [4] [%] | aneuploid (percentage of cells) [4] [%] | further results
GCTGACCTTTTTGCTTCTCA (sugars from the 5' end e5 d10 e5, all phosphorothioate, methylation of C not given here) [ISIS 138648] |  |  |  |  |  |  |  |  |  |  |  |  |  |  |  |  | triglyceride accumulation ([1]; preadipocytes, 250 nM, day nine): decreased triglyceride production; increase in caspase activity [2]: 41%
328388 (eT*e[5mC]*e[5mC]*e[5mC]*eA*dT*dA*dG*d[5mC]*dA*dG*dG*dG*d[5mC]*dA*eG*eA*eG*e[5mC]*e[5mC]; antisense) [compound 328388] | 85 | 110 | 115 | 83 | 120 | 99 | 102 | 101 | 126 | 112 | 0.9 | 57.5 | 14.6 | 28 | 4.0 | 14.5 | 
328419 (antisense eT*eG*eT*eT*eG*d[5mC]*d[5mC]*dT*dA*dA*d[5mC]*dG*dA*dA*d[5mC]*eA*e[5mC]*eA*eG*eA) [compound 328419] | 77 | 109 | 124 | 79 | 87 | 99 | 107 | 96 | 112 | 83 | 0.7 | 51.2 | 16.3 | 32.5 | 6.0 | 17.9 | 
328434 (antisense e[5mC]*eG*e[5mC]*eA*eT*d[5mC]*dT*dT*dG*dA*d[5mC]*dT*dG*dT*dA*eG*e[5mC]*eA*eT*eG) [compound 328434] |  |  |  |  |  |  |  |  |  |  | 0.8 |  |  |  |  |  | PPAR gamma mRNA [5]: 79 percentage of untreated control (UTC); TG (triglyceride accumulation) ([1]; differentiating adipocytes transfected with oligomeric compound): 91 percentage of untreated control (UTC); AP2 mRNA [6]: 85 percentage of untreated control (UTC); HSL mRNA [7]: 96 percentage of untreated control (UTC); GLUT4 mRNA [8]: 83 percentage of untreated control (UTC)
328697 (eG*e[5mC]*eT*eT*eG*dT*d[5mC]*d[5mC]*dA*d[5mC]*dA*d[5mC]*dA*dG*dT*eT*e[5mC]*eA*eA*e[5mC]; antisense) [compound 328697] |  |  |  |  |  |  |  |  |  |  | 1.0 | 57.6 | 16 | 26.4 | 2.4 | 13.5 | 
328436 (antisense eG*eA*eA*eA*eA*dT*dT*dA*dT*dA*dT*dT*dG*dA*d[5mC]*eT*e[5mC]*eT*eG*eA) [compound 328436] |  |  |  |  |  |  |  |  |  |  |  | 59.2 | 13.9 | 26.9 | 3.5 | 17.4 | Fold Increase over UTC (caspase-3 activity, apoptosis) ([2]; 48 hours, experiment of Table 10): 0.9 fold
328421 (antisense eG*e[5mC]*eT*eT*eA*dG*d[5mC]*dT*dG*dT*dG*dT*d[5mC]*dT*dT*eA*e[5mC]*eA*eG*e[5mC]) [compound 328421] | 70 | 47 | 200 | 105 | 288 | 30 | 198 | 202 | 64 | 1103 |  |  |  |  |  |  | Fold Increase over UTC (caspase activity) ([2]; 200 nM, 48 hours, relative to untreated control): 1.2
